Experimental data taken from patent US5885834A, “Antisense oligodeoxynucleotide against phosphodiesterase” (priority 1997, dated 1999).
Where two headings read alike, the source gives them in different places.

Key:
Type in all cases: cell-based, human
PDE4 mRNA in HPBL = test: RT-PCR amplification of transcripts in HPBL
Experimental: (§1) HPBL were purified from 30-60 ml of blood obtained from normal donors by defribrination with glass beads to remove platelets, incubated with tetracarbonyl iron to minimize monocyte contamination and centrifuged on Ficoll-Hypaque density gradients to achieve cell separation. […] For this stimulation, cells were placed in 25 cm^2 flasks in a total volume of 10 ml/flask.
(§2) First strand cDNA was synthesized from the RNA using a Superscript Preamplification System from GIBCO/BRL. […] To this was added 10 mM Tris/HCl pH 8.4, 50 mM KCl, 2.5 mM MgCl2, 10 mM DTT, 500 μM each of dGTP, dATP, dCTP and dTTP in a total volume of 20 μl, and the resultant mix was incubated at room temperature for 5 min. Superscript II reverse transcriptase (2 U) was then added and incubation continued at 42° C. for 50 min. at 70° C. for 15 min. RNase H (2 U) was then added and incubation carried out for 20 min. at 37° C. PCR amplification was carried out in a total volume of 50 μl using 2 μl of cDNA, 20 mM Tris/HCl pH 8.4, 50 mM KCl, 1.5 mM MgCl2, 200 μM each of dGTP, dATP, dCTP and dTTP and 0.4 μM of sense and antisense primers specific for different isogenes of human PDE4, human β-actin and human PDE1B1, as described hereinafter. The PCR reaction mixture was incubated at 94° C. for 5 min. followed by the addition of 0.5 μl Taq DNA polymerase (5 U/μl, GIBCO/BRL). PCR amplification was then carried out for 35 cycles at 94° C. for 1 min., 58° C. for 1 min., 72° C. for 1 min., followed by a final extension at 72° C. for 10 min., except where indicated otherwise. A sample of amplified DNA (10 μl) was resolved on a 1.5% agarose gel containing 0.5 μg/ml ethidium bromide and visualized and photographed under UV light. […] PCR amplification with primers specific for human β-actin were run for every cell sample, as positive controls to ensure that the isolated RNA was not degraded, and for normalization to verify that relatively equal amounts of RNA were used for the first strand cDNA synthesis reactions.
(§3) Primers specific for PDE4A, PDE4B, PDE4C, and PDE4D3 were synthesized. […] M37744; HSPDE4A4B (PDE-46), GenBank no. L20965; HSPDE4A4C (h6.1), GenBank no. U18087. […] U88712 and U88713.

[1] = system: PDE4B mRNA in RPMI 8392 cells; test: RT-PCR amplification of PDE4 subtype transcripts in RPMI 8392 cells; settings: agent alone
[2] = system: PDE4D3 mRNA in RPMI 8392 cells; test: as above; settings: agent alone
RPMI 8392 cells = test: Apoptosis by endonuclease-digested DNA (DNA laddering) on agarose gels; settings: Homo sapiens, read-out: Concentrations at which apoptosis was induced
Experimental: The preferred method for testing the ability of AS ODN to induce apoptosis as determined by detection of endonuclease digested DNA on agarose gels employs the following sequence:
(2) Cells are grown to ≈10^6 /ml, collected by centrifugation for 5 min. at 300×g (1000 rpm in an IEC Model K centrifuge), resuspended in growth medium to 10^6 cells/ml, and placed in a 24 well tissue culture plate at 1 ml/well. The cell volumes are kept to a minimum (i.e., -1 ml), in order to reduce the amount of ODN needed. The fetal bovine serum used in the growth medium for this step is heat-inactivated at 65° C. for 1 hr. to minimize serum nuclease activity.
(4) Cells are then incubated for varying times, usually 1-3 days, following which the DNA is isolated.
The supernatant is aspirated down to ≈50 μl of volume and the cell pellet is resuspended in this remaining small volume.
(6) About 400 μl of cold cell lysis buffer (50 mM Tris-HCl, pH 7.5, 10 mM EDTA, 1% Triton X-100) is then added.
(9) The upper, aqueous phase is transferred to a fresh microfuge tube and 250 μl of phenol and 250 μl of chloroform are added, the mixture gently vortexed for 5 sec., and centrifuged at 16,650×g for 5 min.
(10) The upper, aqueous phase is again transferred to a fresh microfuge tube and 500 μl of chloroform is added, followed by gentle vortexing and centrifugation at 16,650×g for 3 min.
(11) The upper, aqueous phase is again transferred to a fresh microfuge tube, 3M sodium acetate (pH 5.2) is added to a final concentration of 0.3M, and 2.5 volumes of ice cold 100% ethanol is added. The solution is left overnight at -20° C. to precipitate the DNA.
(12) The DNA is collected by centrifugation at 16,650×g for 15 min., the supernatant decanted, and the pellet air dried for ≈30-60 min. at room temperature. The DNA pellet is then dissolved in 50 μl of pH 8.0 TE buffer at room temperature overnight.
(13) One μl of a 4 mg/ml solution of DNase-free RNase A is then added to the DNA and incubation is carried out at 37° C. for 30 min. This step is necessary to prevent contaminating RNA from obscuring the gel.
(14) Thirty μl of DNA solution is then mixed with 6 μl of 6× loading buffer and run on a 2% agarose gel, containing 0.5 μg/ml ethidium bromide, in 0.5× TBE buffer (45 mM Tris-borate, 1 mM EDTA, pH 8.0) at ≈50 V for ≈1.5 hr. The 6× loading buffer used is 0.25% xylene cyanol and 30% glycerol. The use of bromophenol blue is omitted for this analysis because it tends to obscure the visualization of the DNA ladder pattern.
(15) The gel is then visualized and photographed under UV light.
The effect of pharmacological inhibition of each of these PDE activities on induction of apoptosis in RPMI 8392 cells was tested, using the appearance of oligonucleosome length fragments of endonuclease digested DNA as a measure of apoptosis.
Markers (lane 1 in both gels) are 1 kb DNA ladder size markers from GIBCO/BRL.
Cells (10^6) were collected by centrifugation at 670×g for 5 min. The cell pellets were rinsed once with 0.2M dibasic sodium phosphate and lysed in 300 μl of lysis buffer (50 mM Tris/HCl pH 7.5, 10 mM EDTA, 1% V/V Triton X-100) for 20 min on ice. Proteinase K was added to 0.5 mg/ml and DNase-free RNase was added to 50 μg/ml and the extract incubated at 37° C. for 1 hr. DNA was then extracted in phenol/chloroform (1:1) and chloroform (1:1) and precipitated in 2.5 volumes of ethanol. The extracted DNA was electrophoresed on 2% agarose gels, the gels stained with 0.5 μg/ml ethidium bromide and photographed under UV light.
Experiments were conducted to determine if inhibition of the expression of the gene for PDE1B1 could induce apoptosis.

PDE4A mRNA in HPBL = test: RT-PCR amplification of transcripts in HPBL; settings: 10 μg/ml PHA-P, 18 and 48 hr
Experimental: as §1, §2, §3

PDE4D3 mRNA in HPBL = test: RT-PCR amplification of transcripts in HPBL; settings: 10 μg/ml PHA-P, more prominent at 48 hr than 18 hr
Experimental: as §1, §2, §3

[3] = system: PDE4D1 and D2 mRNA in HPBL; test: RT-PCR amplification of transcripts in HPBL; settings: 10 μg/ml PHA-P, 18 and 48 hr
Experimental: as §1, §2, §3

PDE1B1 mRNA in HPBL = test: RT-PCR amplification of transcripts in HPBL
Experimental: as §1, §2, §3

isolated, quiescent HPBL = test: TUNEL assay of apoptosis, flow cytometry, quiescent HPBL; settings: mitogen PHA added to HPBL in culture
From the text: Nevertheless, the effects of AS ODNs on HPBL can still be tested by quantifying and comparing the percentage of cells undergoing apoptosis in the presence and absence of the AS ODN. Apoptosis detected by examining endonuclease-digested DNA, commonly referred to as the DNA laddering technique, has been employed and the results therefrom are set forth in FIG. 5. However, we prefer to use a TUNEL assay, an acronym for terminal deoxynucleotidyl transferase (TdT)-mediated dUTP nick end labeling, which more readily allows quantitation of the percentage of cells undergoing apoptosis. The principle of the TUNEL assay is that endonuclease digestion during apoptosis results in the formation of 3'-OH ends in the digested DNA. The digested DNA in the apoptotic cells can then be labeled with fluorescein by catalytically incorporating fluorescein-12-dUTP at the 3'-OH ends using the TdT enzyme. Fluorescence can then be quantitated by flow cytometry, using a fluorescence activated cell sorter (FACS), which would give a measure of the number of cells undergoing apoptosis. An example of the appearance of a population of fluorescein labeled apoptotic cells, as evidenced by flow cytometry, following TUNEL assay labeling of the cells, is shown in FIGS. 6A-C. Cells were then cultured for 3 days with 10 μg/ml PHA-P (Sigma), in the absence of any ODN (FIG. 6A), in the presence of 30 μM NS ODN (FIG. 6B), or in the presence of 30 μM AS ODN (FIG. 6C). Cells were then collected by centrifugation and fluorescein labeled by the TUNEL assay using the Promega Apoptosis Detection System. Flow cytometry was performed on a Beckton Dickinson FACScan by the FACS facility.
The procedure for analyzing apoptosis by the TUNEL method uses either an In Situ Cell Death Kit, Fluorescein from Boehringer Mannheim or an Apoptosis Detection System, Fluorescein from Promega and follows the protocols of the manufacturers. The data in FIGS. 6 and 7 was obtained using the manufacturer's protocol for the Apoptosis Detection System, Fluorescein from Promega. […]

Molecule: CC(C)Cn1c(=O)n(C)c(=O)c2[nH]cnc21 [IBMX, 1-methyl-3-isobutylxanthine]
- PDE4 mRNA expression, compared with dbcAMP plus IBMX (PDE4 mRNA in HPBL; IBMX (0.1 mM) alone): same effects
- Expression of PDE4B mRNA, compared with dbcAMP plus IBMX [1]: reproduced
- Expression of PDE4D3 mRNA, compared with dbcAMP plus IBMX [2]: reproduced

Molecule: CCCCOc1cc(CC2CNC(=O)N2)ccc1OC (centres unmarked) [RO 20-1724]
- minimal effective concentration (RPMI 8392 cells; 24 h): ≥ 10 µM

Molecule: CCCC(=O)Nc1ncnc2c1ncn2[C@@H]1O[C@@H]2COP(=O)(O)O[C@H]2[C@H]1OC(=O)CCC [dbcAMP, dibutyryl cAMP]
- PDE4 mRNA expression, compared with dbcAMP plus IBMX (PDE4 mRNA in HPBL; dbcAMP (1 mM) alone): same effects
- Expression of PDE4B mRNA, compared with dbcAMP plus IBMX [1]: reproduced
- Expression of PDE4D3 mRNA, compared with dbcAMP plus IBMX [2]: reproduced

Molecule: COc1ccc(C2CNC(=O)C2)cc1OC1CCCC1 (centres unmarked) [rolipram]
- minimal effective concentration (RPMI 8392 cells; RPMI 8392 cells, culture for 24 hr): ≥ 10 µM

Molecule: phytohemagglutinin [PHA]
- Expression of PDE4A mRNA (PDE4A mRNA in HPBL): striking induction
- Expression of PDE4D3 mRNA (PDE4D3 mRNA in HPBL): huge induction
- Expression of PDE4D1 and D2 mRNA [3]: some increase in the expression
- Expression of the mRNA for PDE1B1 (PDE1B1 mRNA in HPBL; 10 μg/ml PHA-P, 18 and 48 hr): readily apparent
- PDE1B1 RT-PCR cDNA fragment (≈333 nt) (PDE1B1 mRNA in HPBL; PHA for 3 days): show a cDNA fragment of the predicted size
- Spontaneous apoptosis of HPBL in culture (TUNEL) (isolated, quiescent HPBL): prevented the HPBL from undergoing spontaneous apoptosis
